Assay [1] deals with U937 cells. In words: Attachment of U937 cells. The note with it: 72 hours; for Block of PMA-induced attachment of U937 cells: 10 nM PMA with different concentrations of compound; for Attachment of U937 cells (attached cells as percent of total): compound alone. It counts as cell-based, human. The procedure:
U937 cells (Sundstrom, C.; Nilsson, K.: Establishment and characterization of a human histiocytic lymphoma cell line (U-937). Int. J. Cancer 1976, 17: 565-577), purchased from ATCC (Manassas, Va.) and cultured in RPMI-1640 medium supplemented with 10% FBS (ATCC, Manassas, Va.), were plated in 35 mm dishes at a density of 2×10^5 living cells/ml and treated with different concentrations of the drugs or DMSO. After 72 hours, the number of cells in the supernatant (non-attached cells) and the number of attached cells (after trypsinization) were counted using a Beckman particle counter (Beckman Coulter Inc., Fullerton, Calif.). The number of attached cells is expressed as percent of total cells (FIGS. 8-10).
U937 cells were treated with PMA (0.1-100 nM), bryostatin 1 (1-1000 nM), the indicated compound (1-1000 nM), 10 nM PMA with different concentrations of bryostatin 1 (1-1000 nM) or 10 nM PMA with different concentrations of indicated compound (1-1000 nM) for 72 hours. The number of attached cells and total cells were counted and the attached cells were graphed as percent of total cells. The bars and error bars represent the average and the standard error of the mean of five independent experiment (FIGS. 8-10).
(§1) U937 cells (Sundstrom and Nilsson, 1976), purchased from ATCC (Manassas, Va.) and cultured in RPMI-1640 medium supplemented with 10% FBS (ATCC, Manassas, Va.), were plated in 35 mm dishes at a density of 1×10^5 living cells/ml and treated with different concentrations of the drugs or DMSO. After 72 hours, the number of cells in the supernatant (non-attached cells) and the number of attached cells (after trypsinization) were counted using a particle counter. The number of attached cells is expressed as percent of total cells.
U937 cells were treated with PMA (0.01-100 nM), bryostatin 1 (0.1-1000 nM), analogue 12 (MERLE 28) (0.1-1000 nM), 10 nM PMA with different concentrations of bryostatin 1 (0.1-1000 nM) or 10 nM PMA with different concentrations of analogue 12 (0.1-1000 nM). The number of attached cells and total cells were counted and the attached cells were graphed as percent of total cells. The bars and error bars represent the average and the standard error of the mean of at least three independent experiments.
as §1
U937 cells were treated with PMA (0.1-100 nM), bryostatin 1 (1-1000 nM), the indicated compound (1-1000 nM), 10 nM PMA with different concentrations of bryostatin 1 (1-1000 nM) or 10 nM PMA with different concentrations of indicated compound (1-1000 nM) for 72 hours. The number of attached cells and total cells were counted and the attached cells were graphed as percent of total cells. The bars and error bars represent the average and the standard error of the mean of at least three independent experiments.

Assay [2] relates to LNCaP human prostate cancer cells. In words: Proliferation and morphology of LNCaP cells (Incucyte confluency imaging). The note with it: for Persistence of early morphological change (cell flattening) in LNCaP cells: Incucyte images, 0-9 hrs after treatment. The assay is classed as cell-based. The procedure: FIGS. 12A-12D show the effect of different compounds on the proliferation and apoptosis of LNCaP cells. […] Time-elapsed images were taken with an Incucyte imaging system every hour for 4 days. The proliferation of LNCaP cells is presented as increase in confluency (read by the instrument) at 80 hrs. Data represent the means±SEM of three independent experiments. […] Apoptosis was measured 2 days after treatment by flow cytometry using 7-AAD and Yo-Pro-1 as described in Materials and Methods. Data represent the means±SEM of three independent experiments.
FIGS. 13A and 13B show the proliferation and morphology of LNCaP cells detected by Incucyte. LNCaP cells were treated with DMSO as control, 300 nM PMA, 1000 nM bryostatin 1 or the bryologue MERLE 21, or with 300 nM PMA in combination with 1000 nM bryostatin 1 or the bryologue MERLE 21. Time-elapsed images were taken by the Incucyte imaging system every hour. […] The arrow indicates the time of treatment. Data are representative of three independent experiments.
The extent of confluency of LNCaP cells (from ATCC, Manassas, Va.) and the morphological changes after treatment were followed in real time using Incucyte (Essen Instruments, Ann Arbor, Mich.). Images of LNCaP cells plated into 24 well plates were taken every 1 hour by the instrument before and after treatment for a total of 4 days. The confluency of the cells was calculated by the instrument's program. The proliferation of LNCaP cells was expressed as the difference in cell confluency before and after treatment.

Assay [3] deals with PKC delta. In words: Phosphorylation of PKC delta at Y311 in LNCaP cells (western blot). The following applies: 2, 5 or 8 hrs treatment. The assay is classed as cell-based, human. The procedure: FIGS. 14A-14C show the induction of cFos and phosphorylation of PKC6 at Y311 in LNCaP cells. […] The proteins from the lysates were separated by 10% SDS-PAGE, electroblotted to nitrocellulose membranes and probed with anti-cFos primary and anti-rabbit secondary antibodies, followed by ECL visualization. Data are representative of four independent experiments. […] The cFos signal was normalized to the 3-actin signal to correct for loading and the response induced by 100 nM PMA at 2 hrs was taken as 100%. Data represent the means±SEM of four independent experiments. […] Data represent the means±SEM of three independent experiments.
LNCaP cells treated for 48 hours with the different drugs or with DMSO as control were washed and re-suspended in phosphate buffered saline. Yo-Pro-1 (Invitrogen, Carlsbad, Calif.) was added to a final concentration of 1 μM and the cells were incubated for 20 min at 4° C. in the dark. 7-Aminoactinomycin D (7-AAD) (Invitrogen, Carlsbad, Calif.) was then added at a 5 μg/mL final concentration 10 minutes before analysis by flow cytometry using the FACSCalibur system (Becton Dickinson, Mountain View, Calif.). Data were analyzed with FlowJo 7 (Tree Star Inc., Ashland, Oreg.). The Yo-Pro-1 positive cells were considered apoptotic and were expressed as % of total cells. […]
A general note: A western blot detects proteins with antibodies after separation by electrophoresis.

`CCC/C=C/C=C/C(=O)O[C@H]1/C(=C/C(=O)OC)C[C@H]2C[C@H]([C@@H](C)O)OC(=O)C[C@H](O)C[C@@H]3C[C@H](OC(C)=O)C(C)(C)[C@](O)(C[C@@H]4C/C(=C/C(=O)OC)C[C@H](/C=C/C(C)(C)[C@]1(O)O2)O4)O3` [Bryostatin 1]: the “Block of PMA-induced attachment of U937 cells” value is recorded as “blocks the effect of the phorbol ester” in assay [1] and “blocks the effect of the phorbol ester in a dose-dependent manner” in assay [1] (listed as bryostatin 1). In addition, the entries for the “Attachment of U937 cells (attached cells as percent of total)” value in assay [1] and in assay [1] (listed as bryostatin 1) were “has much less effect on either response” and “much diminished effect”, respectively. Besides, in assay [2] (300 nM PMA combined with 1000 nM compound, 80 hrs), the “Block of PMA inhibition of LNCaP cell growth” value was “blocked the inhibition of LNCaP cell growth by PMA”. Also, in assay [2], the “Persistence of early morphological change (cell flattening) in LNCaP cells” value is on record as “had reversed by 6 hrs after treatment”. Besides, in assay [2] (compound alone, confluency at 80 hrs), the “Effect on LNCaP cell growth” value was “induced a low level of inhibition of cell growth”. Also, the “Phosphorylation of PKC delta at Y311 in LNCaP cells” value in assay [3] is on record as “only very weak phosphorylation”.
For `CCCCCCCCCCCCCC(=O)O[C@@H]1[C@@H](C)[C@@]2(O)[C@@H](C=C(CO)C[C@]3(O)C(=O)C(C)=C[C@@H]23)[C@@H]2C(C)(C)[C@]12OC(C)=O` [PMA, phorbol 12-myristate 13-acetate], the “Attachment of U937 cells (attached cells as percent of total)” value in assay [1] is reported as “induces attachment”. In addition, the “Persistence of early morphological change (cell flattening) in LNCaP cells” value in assay [2] is on record as “still evident at 6 hrs but reversing by 9 hrs”. Further, the “Phosphorylation of PKC delta at Y311 in LNCaP cells” value in assay [3] is on record as “rapid phosphorylation”.
